Reference: PubChem BioAssay (NCI)
Several values for one entry are separate records, joined by “and”; a condition that tells them apart may be missing. Equal values may be shown once.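 The compound was tested at five concentrations on cells cultured in 96-well plates, with a 48-hour exposure period. At the GI50, growth is halved. TGI is the concentration that stops growth completely.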 Where a SMILES comes first, the peptide text is derived from it. [ ]: non-standard residue; d: D form. The star is where a group is joined. NMeF = CN[CH](Cc1ccccc1)C(=O)O; NMeV = CN[CH](C(=O)O)C(C)C; Boc = CC(C)(C)OC(=O)*

What was measured:
Assay in all cases: NCI anticancer screen, dose series, 48 h
[1] = test system: SF-268 CNS
[2] = test system: SW-620 colon
[3] = test system: LOX IMVI melanoma
[4] = test system: OVCAR-4 ovarian
[5] = test system: NCI-H23 lung
[6] = test system: CCRF-CEM leukemia
[7] = test system: HCT-15 colon
[8] = test system: SK-MEL-5 melanoma
[9] = test system: RPMI-8226 leukemia
[10] = test system: SK-MEL-28 melanoma

Row | SMILES | GI50 [1] | TGI [1] | GI50 [2] [µM] | TGI [2] | GI50 [3] [µM] | TGI [3] [µM] | GI50 [4] [µM] | TGI [4] | GI50 [5] [µM] | TGI [5] | GI50 [6] [µM] | TGI [6] [µM] | GI50 [7] [µM] | TGI [7] [µM] | GI50 [8] [µM] | TGI [8] | GI50 [9] [µM] | TGI [9] [µM] | GI50 [10] | TGI [10]
1 | C[C@@]12CC=C3c4nc(Nc5cccc(O)c5)sc4CC[C@]3(C)[C@H]1CC[C@]1(C)C(=O)CC[C@@H]21 | 2.1 µM | 7.12 µM | 2.13 | 4.82 µM | 1.67 | 3.15 | 2.76 | > 100 µM | 2.74 | 12.3 µM | 1.83 | > 100 | 1.38 | 3.33 | 5.7 | > 100 µM | 0.669 | 4.52 | – | –
2 | CCC[CH2][Sn]1([CH2]CCC)[O]CC(CN2CCCC2)[O]1 (stereo not drawn) | – | – | 11.5 | 27.6 µM | 12.3 | 26.8 | 14.4 | 28.5 µM | 11.6 | 27.7 µM | 3.33 | 21.3 | 15.3 | 29.2 | 17.9 | 33.4 µM | 7.44 | 44.1 | 19 µM | 34.9 µM
3 | COc1ccc(C(=O)C(C(=O)CCC(=O)Nc2cccc(Cl)c2)c2ccc(OC)cc2)cc1 (stereo not drawn) | – | > 100 µM | – | > 100 µM | – | – | – | > 100 µM | – | > 100 µM | – | > 100 | – | > 100 | – | > 100 µM | – | > 100 | – | > 100 µM
4 | CCOC(=O)C1=C(C)N(NC(=O)Nc2ccccc2)C(=O)C1=P(c1ccccc1)(c1ccccc1)c1ccccc1 | – | > 100 µM | – | > 100 µM | – | > 100 | – | > 100 µM | – | > 100 µM | – | 96.7 | – | > 100 | – | > 100 µM | – | 82.5 | – | –
5 | COC1(OC)C2(Cl)C(Cl)=C(Cl)C1(Cl)C1C=CC=CC12 (stereo not drawn) | – | > 100 µM | – | > 100 µM | – | > 100 | – | > 100 µM | – | > 100 µM | – | – | – | > 100 | – | > 100 µM | – | > 100 | – | > 100 µM
6 | O=C1C2C3C=C4c5ccccc5N(c5ccccc5)C4(C2C(=O)N1Cc1ccccc1)C1C(=O)N(Cc2ccccc2)C(=O)C31 (stereo not drawn) | – | > 100 µM | – | > 100 µM | – | > 100 | – | – | – | > 100 µM | – | > 100 | – | > 100 | – | – | – | – | – | > 100 µM
7 | COc1cc(C(C)O)c[n+](CCc2c[nH]c3ccccc23)c1 (stereo not drawn) | – | > 100 µM | – | > 100 µM | – | > 100 | – | > 100 µM | – | > 100 µM | – | > 100 | – | > 100 | – | > 100 µM | – | > 100 | – | –
8 | CC(C)(C)c1ccc2c(c1)S(=O)(=O)Nc1ccccc1NS(=O)(=O)c1cc(C(C)(C)C)ccc1OCCOCCOCCO2 | – | > 100 µM | – | > 100 µM | – | > 100 | – | 48 µM | – | > 100 µM | – | > 100 | – | > 100 | – | > 100 µM | – | – | – | > 100 µM
9 | Nn1c(=O)n(Cc2ccccc2)n(-c2ccccc2)c1=O | – | > 100 µM | – | > 100 µM | – | > 100 | – | > 100 µM | – | > 100 µM | – | > 100 | – | – | – | > 100 µM | – | > 100 | – | > 100 µM
10 | Cc1cccc(NC(=O)/C(=N\NC(C)(C)C)C2NC(=S)NC2=O)c1C (stereo not drawn) | – | – | – | > 100 µM | – | – | – | > 100 µM | – | – | – | > 100 | – | > 100 | – | > 100 µM | – | > 100 | – | –
11 | COc1ccccc1/C=C1\SC(=S)N(/C=C2\C(=O)Oc3ccccc3C2=O)C1=O | – | > 100 µM | – | > 100 µM | – | > 100 | – | > 100 µM | – | 10.1 µM | – | > 100 | – | > 100 | – | 51.4 µM | – | – | – | –
12 | Clc1nc(Cl)c(Cl)c(-c2ccccc2)n1 | – | 61.6 µM | – | 5.62 µM | – | 5.59 | – | 20.6 µM | – | 35 µM | – | – | – | > 100 | – | 11.8 µM | – | > 100 | – | 32.8 µM
13 | COc1cc(/C=C/c2cc(/C=C/c3ccc(O)c(OC)c3)n(C(=O)Nc3ccc(F)c(Cl)c3)n2)ccc1O | – | – | – | – | 0.0792 | 1.85 | 0.721 | 5.47 µM | 0.147 | 1.46 µM | 0.131 | > 100 | 0.25 | 3.34 | 0.243 | 1.37 µM | 0.365 | 1.73 | 0.52 µM | 3.92 µM
14 | CCOC(=O)CC1(C(=O)OCC)c2[nH]c3ccccc3c2CCN1Cc1ccccc1 (stereo not drawn) | – | 37.7 µM | – | > 100 µM | – | 32.9 | – | 55.2 µM | – | 33 µM | – | > 100 | – | > 100 | – | 34.6 µM | – | – | – | 39.4 µM
15 | OC[C@H]1CCCC1O (stereo partly drawn) | – | > 100 µM | – | > 100 µM | – | – | – | > 100 µM | – | > 100 µM | – | > 100 | – | > 100 | – | > 100 µM | – | > 100 | – | > 100 µM
16 | COc1ccc(-c2n[nH]nc2-c2cc(OC)c(OC)c(OC)c2)cc1 | 0.0156 µM | > 100 µM | < 0.01 | > 100 µM | < 0.01 | > 57 | < 0.0144 | 43.3 µM | < 0.01 | 36.4 µM | < 0.01 | > 40.8 | < 0.01 | > 100 | < 0.01 | 0.0224 µM | < 0.01 | > 32.4 | – | –
17 | COC(=O)C1=C(C)N(NC(=O)OC(C)(C)C)C(=O)C1=P(c1ccccc1)(c1ccccc1)c1ccccc1 | – | > 100 µM | – | > 100 µM | – | > 100 | – | > 100 µM | – | > 100 µM | – | > 100 | – | > 100 | – | > 100 µM | – | > 100 | – | –
18 | COC(C(O)CO)C(O)C(O)C(=O)NNc1ccccc1 (stereo not drawn) | – | > 100 µM | – | > 100 µM | – | > 100 | – | – | – | > 100 µM | – | > 100 | – | > 100 | – | > 100 µM | – | > 100 | – | > 100 µM
19 | CC1CC[C@]2(C(=O)O)CCC3(C)C(=CC(=O)C4[C@@]5(C)CCC(=O)C(C)(C)C5CC[C@]43C)[C@@H]2[C@H]1C (stereo partly drawn) | – | > 100 µM | – | > 100 µM | – | 42.8 | – | > 100 µM | – | 79.3 µM | – | 58.9 | – | – | – | > 100 µM | – | – | – | 42.9 µM
20 | O=S(=O)(N=S(c1ccccc1)c1ccccc1)c1ccccc1 | – | > 100 µM | – | > 100 µM | – | – | – | – | – | > 100 µM | – | > 100 | – | > 100 | – | – | – | > 100 | – | > 100 µM
21 | O=C(N/N=C/c1ccccc1)c1c(-c2cccnc2)cnc2ccccc12 | – | > 100 µM | – | > 100 µM | – | – | – | > 100 µM | – | > 100 µM | – | > 100 | – | > 100 | – | > 100 µM | – | > 100 | – | > 100 µM
22 | COC(=O)/C(=N\Nc1nnc(C)n1N)C(C#N)c1ccc(Cl)cc1 (stereo not drawn) | – | > 100 µM | – | > 100 µM | – | > 100 | – | > 100 µM | – | > 100 µM | – | – | – | > 100 | – | – | – | > 100 | – | > 100 µM
23 | Oc1cccnc1CN1CCCCC1 | – | > 100 µM | – | > 100 µM | – | > 100 | – | > 100 µM | – | > 100 µM | – | – | – | > 100 | – | > 100 µM | – | > 100 | – | > 100 µM
24 | O=C1CCN2C(=O)CCN12 | – | > 100 µM | – | > 100 µM | – | – | – | > 100 µM | – | > 100 µM | – | > 100 | – | – | – | – | – | > 100 | – | > 100 µM
25 | NCCCCN(CCCN)/[N+]([O-])=N\O | – | > 100 µM | – | > 100 µM | – | – | – | > 100 µM | – | > 100 µM | – | > 100 | – | > 100 | – | > 100 µM | – | > 100 | – | > 100 µM
26 | CC(C)C(Nc1c2ccccc2nc2ccccc12)C(=O)O (stereo not drawn) | – | > 100 µM | – | > 100 µM | – | > 100 | – | 85.3 µM | – | > 100 µM | – | > 100 | – | > 100 | – | – | – | > 100 | – | > 100 µM
27 | CC(=O)[O-].CCN(CC)c1ccc(C=NCCN=Cc2ccc(N(CC)CC)cc2[O-])c([O-])c1.[Mn+3] | 23.8 µM | 52.7 µM | 27.4 | 66.4 µM | 20.3 | 37.6 | 37.3 | > 100 µM | 19.7 | 37.6 µM | 42 | > 100 | > 100 | > 100 | 19 | 33.9 µM | – | – | 19.2 µM | 37.8 µM
28 | Cn1c(=O)c(C(c2ccc([N+](=O)[O-])cc2)c2c(O)c3ccccc3n(C)c2=O)cc2ccccc21 (stereo not drawn) | – | > 100 µM | – | > 100 µM | – | > 100 | – | > 100 µM | – | > 100 µM | – | – | – | > 100 | – | > 100 µM | – | > 100 | – | > 100 µM
29 | CC(C)C(NC(=O)OC(C)(C)C)C(=O)N(C)C(Cc1ccccc1)C(=O)N(C)C(C(=O)O)C(C)C (stereo not drawn) (Boc-Val-[NMeF]-[NMeV]-OH; configuration not given here) | – | > 100 µM | – | > 100 µM | – | > 100 | – | – | – | > 100 µM | – | > 100 | – | > 100 | – | > 100 µM | – | > 100 | – | > 100 µM
30 | Cc1cn(C2CC(N(O)Cc3ccccc3)C(CO[Si](C)(C)C(C)(C)C)O2)c(=O)[nH]c1=O (stereo not drawn) | 34.6 µM and 16.7 µM | > 100 µM and 31 µM | – | 69.2 µM and 34.1 µM | – | – | – | 83.6 µM and 31.5 µM | – | 66.3 µM and 31.3 µM | – | > 100 | – | 96.6 | – | 33.1 µM and 30.2 µM | – | > 100 | 37.5 µM and 16.9 µM | > 100 µM and 30.8 µM
